This is an account of results in US9926297B2, “Bicyclic AZA compounds as muscarinic M1 receptor and/or M4 receptor agonists” (Heptares Therapeutics Limited, priority 2014, dated 2018).

The target in assay [1] is T1, human muscarinic M4 receptor (Homo sapiens, UniProt P08173).
T1 construct: expressed in transfected cells
T1 sequence (P08173 1-479): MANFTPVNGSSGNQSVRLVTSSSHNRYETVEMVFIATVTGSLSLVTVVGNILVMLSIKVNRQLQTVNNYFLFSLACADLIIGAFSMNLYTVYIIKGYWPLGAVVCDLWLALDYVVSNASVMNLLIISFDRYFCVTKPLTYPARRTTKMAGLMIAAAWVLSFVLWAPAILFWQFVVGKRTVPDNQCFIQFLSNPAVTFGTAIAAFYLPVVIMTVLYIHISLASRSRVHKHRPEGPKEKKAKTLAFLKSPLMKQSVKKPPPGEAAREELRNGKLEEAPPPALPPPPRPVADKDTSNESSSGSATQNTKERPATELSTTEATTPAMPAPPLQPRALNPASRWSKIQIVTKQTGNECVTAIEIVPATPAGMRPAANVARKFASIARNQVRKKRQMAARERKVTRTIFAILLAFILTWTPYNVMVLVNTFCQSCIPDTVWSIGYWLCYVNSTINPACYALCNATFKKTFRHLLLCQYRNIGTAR
Kind of assay: Alphascreen Surefire phospho-ERK1/2 functional assay, M4. In kind it is cell-based. To be noted: for EC50 / % Emax cf. ACh, M4: CHO cells stably expressing human M4; for EC50: phospho-ERK1/2, * = variable results, read-out: pEC50 M4 (converted); for Emax: CHO; for selectivity for the M4 receptor relative to the M1 receptor: functional assay of Example A.

The target of assay [2] is T2, human muscarinic M1 receptor (Homo sapiens, UniProt P11229).
T2 sequence (P11229 1-460): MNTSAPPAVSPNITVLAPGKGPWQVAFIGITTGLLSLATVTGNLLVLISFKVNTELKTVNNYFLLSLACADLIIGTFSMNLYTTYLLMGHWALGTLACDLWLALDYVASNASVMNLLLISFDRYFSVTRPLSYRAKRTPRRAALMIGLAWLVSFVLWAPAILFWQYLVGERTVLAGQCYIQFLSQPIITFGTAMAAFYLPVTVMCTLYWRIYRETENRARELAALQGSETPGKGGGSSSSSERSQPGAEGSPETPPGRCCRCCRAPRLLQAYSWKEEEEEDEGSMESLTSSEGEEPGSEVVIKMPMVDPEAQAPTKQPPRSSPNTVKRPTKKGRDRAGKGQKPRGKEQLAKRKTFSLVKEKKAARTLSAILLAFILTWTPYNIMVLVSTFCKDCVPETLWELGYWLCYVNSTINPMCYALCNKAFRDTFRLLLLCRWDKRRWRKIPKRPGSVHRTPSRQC
Briefly: Alphascreen Surefire phospho-ERK1/2 functional assay, M1. In kind it is cell-based. To be noted: for EC50: read-out: pEC50 M1 (converted); for Emax: CHO.

The mark [3] stands for this setting: read-out: % Emax cf. ACh, M4, CHO cells stably expressing human M4, relative to ACh.
Where [4] appears, read: CHO cells stably expressing human M1, phospho-ERK1/2, * = variable results.
[5] abbreviates: read-out: % Emax cf. ACh, M1, CHO cells stably expressing human M1, relative to ACh.
Where [6] appears, read: CHO cells stably expressing human M1, relative to ACh.

Like-named read-outs stand apart in the source and are kept apart here.

For `CCOC(=O)N1CCC2(CC(N3CCC(c4nccn4CCOC)CC3)C2)C1` (single isomer, unassigned) [1-51 Isomer 2, ethyl 2-{4-[1-(2-methoxyethyl)-1H-imidazol-2-yl]piperidin-1-yl}-6-azaspiro[3.4]octane-6-carboxylate], the EC50 in assay [1] is 158 nM; in assay [2] (setting [4]) it was 1260 nM. Further, the Emax worked out at 106% in assay [1] (setting [3]) and 74% in assay [2] (setting [5]).

Regarding `CCOC(=O)N1CCC2(CC(N3CCC(N4C(=O)CC[C@H]4CC)CC3)C2)C1` (single isomer, unassigned) [2-114 Isomer 2], the results for the EC50 in assay [1] and in assay [2] (setting [4]) were 7.94 nM and 126 nM, respectively. The Emax in assay [1] (setting [3]) was determined as 114%; in assay [2] (setting [5]), 103%.

As to `CCOC(=O)N1CCC2(CC(N3CCC(C)(c4nc(C)no4)CC3)C2)C1` (single isomer, unassigned) [1-41 Isomer 2, ethyl 2-[4-methyl-4-(3-methyl-1,2,4-oxadiazol-5-yl)piperidin-1-yl]-6-azaspiro[3.4]octane-6-carboxylate], the EC50 was 251 nM in assay [1] and 1000 nM in assay [2] (setting [4]). Besides, the Emax is 35% in assay [1] (read-out: % Emax cf. ACh, M4) and 52% in assay [2] (read-out: % Emax cf. ACh, M1).

For the molecule `COC(=O)N1CCC2(CC(N3CCC(c4nc(C)cn4C)CC3)C2)C1` (single isomer, unassigned) [1-11 Isomer 2, methyl 2-[4-(1,4-dimethyl-1H-imidazol-2-yl)piperidin-1-yl]-6-azaspiro[3.4]octane-6-carboxylate], the EC50 in assay [1] is 251 nM; in assay [2] (setting [4]), 1580 nM. For the same molecule, the maximal response (Emax) in assay [1] (setting [3]) turned out to be 85%; in assay [2] (setting [5]), 98%.

Consider `CCOC(=O)N1CCC2(CC(N3CCC(N4C(=O)OC[C@@H]4C)CC3)C2)C1` (single isomer, unassigned) [2-121 Isomer 2], for which the EC50 was 200 nM in assay [1] and 1000 nM in assay [2] (setting [4]). Further, the figures for the maximal response (Emax) in assay [1] (setting [3]) and in assay [2] (setting [5]) were 60% and 31%, respectively.

`CCOC(=O)N1CCC2(CC(N3CCC([C@@H]4CCCN4C(=O)N4Cc5cccnc5C4)CC3)C2)C1` (single isomer, unassigned) [2-133 Isomer 2]: the EC50 in assay [1] was 0.631 nM; in assay [2] (setting [4]), 79.4 nM. Further, the “% Emax cf. ACh, M4” value in assay [1] (relative to ACh) worked out at 118%. For the same molecule, in assay [2] (setting [6]), the “% Emax cf. ACh, M1” value amounted to 69%.

For the molecule `CCn1nccc1C1CCN(C2CC3(CCN(C(=O)OC)C3)C2)CC1` (single isomer, unassigned) [1-46 Isomer 2, methyl 2-[4-(1-ethyl-1H-pyrazol-5-yl)piperidin-1-yl]-6-azaspiro[3.4]octane-6-carboxylate], the EC50 in assay [1] is 200 nM; in assay [2] (setting [4]), more than 20000 nM. In addition, the results for the Emax in assay [1] (setting [3]) and in assay [2] (setting [5]) were 63% and 35%, respectively.

Consider `CCOC(=O)N1CCC2(CC(N3CCC([C@@H]4CCCN4CC(=O)N(C)C)CC3)C2)C1` (single isomer, unassigned) [2-73 Isomer 2], for which the EC50 in assay [1] was 316 nM; in assay [2] (setting [4]), more than 20000 nM. The Emax in assay [1] (setting [3]) turned out to be 43%; in assay [2] (setting [5]), 14%.

`CCOC(=O)N1CCC2(CC(N3CCC(N4C(=O)OC[C@H]4C(C)C)CC3)C2)C1` (single isomer, unassigned) [2-120 Isomer 2]: the figures for the EC50 in assay [1] and in assay [2] (setting [4]) were 316 nM and 398 nM, respectively. The Emax in assay [1] (setting [3]) is 87%; in assay [2] (setting [5]), 96%.

With `CCOC(=O)N1CCC2(CC(N3CCC([C@@H]4CCCN4c4nnc(C)o4)CC3)C2)C1` (single isomer, unassigned) [2-138 Isomer 2], the results for the EC50 in assay [1] and in assay [2] (setting [4]) were 39.8 nM and more than 20000 nM, respectively. Besides, the figures for the Emax in assay [1] (setting [3]) and in assay [2] (setting [5]) were 44% and 17%, respectively.

Take `CCOC(=O)N1CCC2(CC(N3CCC(c4nnnn4C4CC4)CC3)C2)C1` (single isomer, unassigned) [1-67 Isomer 2, ethyl 2-[4-(1-cyclopropyl-1H-tetrazol-5-yl)piperidin-1-yl]-6-azaspiro[3.4]octane-6-carboxylate]: the values for the EC50 in assay [1] and in assay [2] (setting [4]) were 316 nM and 3160 nM, respectively. For the same molecule, the maximum response (Emax) was 75% in assay [1] (setting [3]) and 37% in assay [2] (setting [5]).

In the case of `COC(=O)N1CCC2(CC(N3CCC(c4ncc(C)n4C)CC3)C2)C1` (centres unmarked) [Example 1-9, methyl 2-[4-(1,5-dimethyl-1H-imidazol-2-yl)piperidin-1-yl]-6-azaspiro[3.4]octane-6-carboxylate], the “selectivity for the M4 receptor relative to the M1 receptor” value in assay [1] is “highly selective for the M4 receptor relative to the M1 receptor”.

Take `CCOC(=O)N1CCC2(CC(N3CCC([C@@H]4CCCN4C(=O)N(C)CC(F)(F)F)CC3)C2)C1` (single isomer, unassigned) [2-55 Isomer 1]: the values for the EC50 in assay [1] and in assay [2] (setting [4]) were 158 nM and more than 20000 nM, respectively. For the same molecule, the maximal response (Emax) in assay [1] (setting [3]) turned out to be 67%. In addition, the “% Emax cf. ACh, M1” value in assay [2] (setting [6]) is recorded as 15%.

Take `CCOC(=O)N1CCC2(CC(N3CCC(C4CCCNC4=O)CC3)C2)C1` (single isomer, unassigned) [4-1 Isomer 2, ethyl 2-(2-oxo-3,4′-bipiperidin-1′-yl)-6-azaspiro[3.4]octane-6-carboxylate]: the values for the EC50 in assay [1] and in assay [2] (setting [4]) were 69.2 nM and more than 20000 nM, respectively. Also, the “% Emax cf. ACh, M4” value in assay [1] (relative to ACh) was found to be 47%. The “% Emax cf. ACh, M1” value in assay [2] (setting [6]) was found to be 10%.

As for `CCOC(=O)N1CCC2(CC(N3CCC(c4c(C)cc[nH]c4=O)CC3)C2)C1` (single isomer, unassigned) [3-14 Isomer 2, ethyl 2-[4-(4-methyl-2-oxo-1,2-dihydropyridin-3-yl)piperidin-1-yl]-6-azaspiro[3.4]octane-6-carboxylate], in assay [1], the EC50 was 251 nM. In addition, in assay [1] (relative to ACh), the “% Emax cf. ACh, M4” value is 75%. Also, the “pEC50 M1” value in assay [2] (setting [4]) was found to be 5.5. Also, the “% Emax cf. ACh, M1” value in assay [2] (setting [6]) was 29%.

Consider `CCOC(=O)N1CCC2(CC(N3CCC(N4CCC[C@H]4C(=O)NC)CC3)C2)C1` (single isomer, unassigned) [2-85 Isomer 2], for which the EC50 in assay [1] is more than 20000 nM; in assay [2] (setting [4]), 2510 nM. Besides, the Emax in assay [1] (setting [3]) is 3%; in assay [2] (setting [5]), 66%.

On to `CCOC(=O)N1CCC2(CC(N3CCC(N4CCOCC4)CC3)C2)C1` (single isomer, unassigned) [4-11 Isomer 2, ethyl 2-[4-(morpholin-4-yl)piperidin-1-yl]-6-azaspiro[3.4]octane-6-carboxylate], for which the EC50 in assay [1] is 200 nM; in assay [2] (setting [4]), more than 20000 nM. For the same molecule, the maximal effect (Emax) in assay [1] (setting [3]) amounted to 55%; in assay [2] (setting [5]) it was 54%.

`COC(=O)N1CCC2(CC(N3CCC(c4nccn4C)CC3)C2)C1` (centres unmarked) [Example 1-6, methyl 2-[4-(1-methyl-1H-imidazol-2-yl)piperidin-1-yl]-6-azaspiro[3.4]octane-6-carboxylate]: in assay [1], the “selectivity for the M4 receptor relative to the M1 receptor” value is “highly selective for the M4 receptor relative to the M1 receptor”.

For `CCOC(=O)N1CCC2(CC(N3CCC([C@@H]4CCCN4C(=O)NC)CC3)C2)C1` (stereo partly drawn) [Example 2-17, ethyl 2-{4-[(2S)-1-(methylcarbamoyl)pyrrolidin-2-yl]piperidin-1-yl}-6-azaspiro[3.4]octane-6-carboxylate], the “selectivity for the M4 receptor relative to the M1 receptor” value in assay [1] is recorded as “highly selective for the M4 receptor relative to the M1 receptor”.

For the molecule `CCOC(=O)N1CCC2(CC(N3CCC(c4ccnn4C)CC3)C2)C1` (centres unmarked) [Example 1-21, ethyl 2-[4-(1-methyl-1H-pyrazol-5-yl)piperidin-1-yl]-6-azaspiro[3.4]octane-6-carboxylate], in assay [1], the “selectivity for the M4 receptor relative to the M1 receptor” value is “highly selective for the M4 receptor relative to the M1 receptor”.
